Where two headings read alike, the source gives them in different places.
Experiments:
[1] = system: RT-4; experiment: IC50 cell-based assay, adherent cells, RT-4; details: Homo sapiens, Bladder, papilloma, 72 hours, read-out: IC50 of Compounds in Adherent Cell Types
Description: (§1) In one embodiment, the IC50s of the compounds provided herein were determined in cell-based assays using adherent cells. In one embodiment, the activity of the compounds provided herein were determined in a cell-based assay using the triple negative breast cancer cell line MDA-MB-468. In one embodiment, the adherent cells used in the cell-based assays may be a cell type selected from Table 1. In one embodiment, the cell-based assay may be carried out as provided herein. On day 0, cells were seeded at 20,000 cells per well in 100 µL of media into individual wells of a 96-well tissue culture plate. The next day, compounds were diluted to twice the desired final concentration and added in 100 µL of media for a final volume of 200 μL. Standard solutions for each compound were prepared at 1000× concentration in DMSO. The highest concentration was 30 mM. Serial 1:1 dilutions were made from there for a 6- or 9-point curve (e.g., 30 mM, 15 mM, 7.5 mM, etc). Compounds were then diluted 1:500 in media, and 100 µL of the resulting solution was added to each well for a final dilution of 1:1000. Each concentration of compound was tested in triplicate. Cells were incubated at 37° C. with 5% CO2. After 72 hours, 20 μL of CellTiter 96 Aqueous One Solution Cell Proliferation Assay (Promega) was added to each well. Cells were placed back in the incubator, and the absorbance at 490 nm was read after 2-3 hours. The concentration of compound that decreased the number of metabolically active cells by 50% was determined and reported as the IC50. “Percent Viability” was determined by subtracting the average background value (media only) and expressed as a ratio to the average value obtained from cells treated with only DMSO.

[2] = system: U87-MG; experiment: IC50 cell-based assay, adherent cells, U87-MG; details: Homo sapiens, U-87 MG, Brain, glioblastoma, 72 hours, read-out: IC50 of Compounds in Adherent Cell Types
Description: as §1

[3] = system: triple negative breast cancer cell line MDA-MB-468; experiment: IC50 cell-based assay, adherent cells, MDA-MB-468; details: Homo sapiens
Description: as §1
The IC50s of the compounds provided herein were determined in cell-based assay using triple negative breast cancer cell line MDA-MB-468.

[4] = system: MCF-7; experiment: IC50 cell-based assay, adherent cells, MCF-7; details: Homo sapiens, MCF7, Breast, ER+, 72 hours, read-out: IC50 of Compounds in Adherent Cell Types
Description: as §1

[5] = system: SKBR-3; experiment: IC50 cell-based assay, adherent cells, SKBR-3; details: Homo sapiens, SK-BR-3, Breast, ER−, 72 hours, read-out: IC50 of Compounds in Adherent Cell Types
Description: as §1

[6] = system: MDA-MB-361; experiment: IC50 cell-based assay, adherent cells, MDA-MB-361; details: Homo sapiens, Breast, Brain met Her2-neu + ER +, 72 hours, read-out: IC50 of Compounds in Adherent Cell Types
Description: as §1

[7] = system: MDA-MB-231; experiment: IC50 cell-based assay, adherent cells, MDA-MB-231; details: Homo sapiens, Breast, triple neg, 72 hours, read-out: IC50 of Compounds in Adherent Cell Types
Description: as §1

[8] = system: 1937; experiment: IC50 cell-based assay, adherent cells, 1937; details: Breast, triple neg, 72 hours, read-out: IC50 of Compounds in Adherent Cell Types
Description: as §1

[9] = system: HT-29; experiment: IC50 cell-based assay, adherent cells, HT-29; details: Homo sapiens, Colorectal, adenocarcinoma, 72 hours, read-out: IC50 of Compounds in Adherent Cell Types
Description: as §1

[10] = system: SK-MEL-28; experiment: IC50 cell-based assay, adherent cells, SK-MEL-28; details: Homo sapiens, Melanoma, 72 hours, read-out: IC50 of Compounds in Adherent Cell Types
Description: as §1

[11] = system: Caki-1; experiment: IC50 cell-based assay, adherent cells, Caki-1; details: Homo sapiens, Kidney, clear cell carc., skin met, 72 hours, read-out: IC50 of Compounds in Adherent Cell Types
Description: as §1

[12] = system: Hep-G2; experiment: IC50 cell-based assay, adherent cells, Hep-G2; details: Homo sapiens, HepG2, Liver, hepatocellular carcinoma, 72 hours, read-out: IC50 of Compounds in Adherent Cell Types
Description: as §1

[13] = system: A549; experiment: IC50 cell-based assay, adherent cells, A549; details: Homo sapiens, Lung, NSCLC, 72 hours, read-out: IC50 of Compounds in Adherent Cell Types
Description: as §1

[14] = system: H-460; experiment: IC50 cell-based assay, adherent cells, H-460; details: Homo sapiens, NCI-H460, Lung, large cell carcinoma, 72 hours, read-out: IC50 of Compounds in Adherent Cell Types
Description: as §1

[15] = system: OVCAR-3; experiment: IC50 cell-based assay, adherent cells, OVCAR-3; details: Homo sapiens, Ovarian, adenocarcinoma, 72 hours, read-out: IC50 of Compounds in Adherent Cell Types
Description: as §1

[16] = system: AsPC-1; experiment: IC50 cell-based assay, adherent cells, AsPC-1; details: Homo sapiens, ASPC1, Pancreas, carcinoma, 72 hours, read-out: IC50 of Compounds in Adherent Cell Types
Description: as §1

[17] = system: Panc-1; experiment: IC50 cell-based assay, adherent cells, Panc-1; details: Homo sapiens, Pancreas, epitheloid carcinoma, 72 hours, read-out: IC50 of Compounds in Adherent Cell Types
Description: as §1

[18] = system: FaDu; experiment: IC50 cell-based assay, adherent cells, FaDu; details: Homo sapiens, Pharynx, squamous cell, 72 hours, read-out: IC50 of Compounds in Adherent Cell Types
Description: as §1

[19] = system: A431; experiment: IC50 cell-based assay, adherent cells, A431; details: Homo sapiens, A-431, Skin, epidermoid carcinoma, 72 hours, read-out: IC50 of Compounds in Adherent Cell Types
Description: as §1

[20] = system: HL-60; experiment: IC50 cell-based assay, suspension cells, HL-60; details: Homo sapiens, Leukemia, AML, read-out: IC50 of Compounds in Suspension Cell Types
Description: as §1
(§2) In one embodiment, the IC50s of the compounds provided herein were determined in cell-based assays using suspension cells. In one embodiment, the activity of the compounds provided herein were determined in a cell-based assay using the JeKo-1 cell line (mantle cell lymphoma) or the Pfeiffer cell line (diffuse large B-cell lymphoma). In one embodiment, the suspension cells used in the cell-based assays may be a cell type selected from Table 2. Assays with suspension cells were similar except that 40,000-60,000 cells were added to each well and compounds were added immediately after cell plating.

[21] = system: MHH-CALL-4; experiment: IC50 cell-based assay, suspension cells, MHH-CALL-4; details: MHHCALL4, Leukemia, B-ALL (CRLF2 Hi), read-out: IC50 of Compounds in Suspension Cell Types
Description: as §1, §2

[22] = system: Kg1a; experiment: IC50 cell-based assay, suspension cells, Kg1a; details: Homo sapiens, KG-1a, Leukemia, AML, read-out: IC50 of Compounds in Suspension Cell Types
Description: as §1, §2

[23] = system: Nalm-6; experiment: IC50 cell-based assay, suspension cells, Nalm-6; details: Homo sapiens, Leukemia, B-ALL, read-out: IC50 of Compounds in Suspension Cell Types
Description: as §1, §2

[24] = system: Nalm-6-VR; experiment: IC50 cell-based assay, suspension cells, Nalm-6-VR; details: Leukemia, B-ALL, Vincristine resistant, read-out: IC50 of Compounds in Suspension Cell Types
Description: as §1, §2

[25] = system: SupB15; experiment: IC50 cell-based assay, suspension cells, SupB15; details: Homo sapiens, SUP-B15, Leukemia, B-ALL (Philadelphia chromosome+), read-out: IC50 of Compounds in Suspension Cell Types
Description: as §1, §2

[26] = system: Z138, JeKo-1; experiment: IC50 cell-based assay, suspension cells, Z138, JeKo-1; details: Lymphoma, Mantle cell, read-out: IC50 of Compounds in Suspension Cell Types
Description: as §1, §2

[27] = system: Pfeiffer; experiment: IC50 cell-based assay, suspension cells, Pfeiffer; details: Homo sapiens, Lymphoma, Diffuse large b-cell, read-out: IC50 of Compounds in Suspension Cell Types
Description: as §1, §2

[28] = MDA-MB-468, Breast, triple neg, 72 hours, Table 1, read-out: IC50 of Compounds in Adherent Cell Types
[29] = MDA-MB-468 cells, Table 3, read-out: IC50 of Compounds in MDA-MB-468 Cells

Row | Compound | IC50 [1] | IC50 [2] | IC50 [3, 28] | IC50 [3, 29] | IC50 [4] | IC50 [5] | IC50 [6] | IC50 [7] | IC50 [8] | IC50 [9] | IC50 [10] | IC50 [12] | IC50 [17] | IC50 [20] | IC50 [21] | IC50 [22] | IC50 [23] | IC50 [25] | IC50 [26] | IC50 [27] | other results
1 | O=C(Nc1cc(C(F)(F)F)cc(C(F)(F)F)c1)c1cc(-c2ccc(Br)cc2)oc1C(F)(F)F [Compound 3, 5-(4-Bromophenyl)-N-(3,5-bistrifluoromethylphenyl)-2-trifluoromethylfuran-3-carboxamide] | > 20 µM | 5 to 10 µM | < 5 µM | 1.5 µM | 5 to 10 µM | < 5 µM | < 5 µM | 5 to 10 µM | < 5 µM | 10 to 20 µM | 5 to 10 µM | 5 to 10 µM | 5 to 10 µM | < 5 µM | < 5 µM | < 5 µM | 5 to 10 µM | < 5 µM | < 5 µM | < 5 µM | IC50 [11]: 5 to 10 µM; IC50 [13]: < 5 µM; IC50 [14]: 10 to 20 µM; IC50 [15]: < 5 µM; IC50 [16]: 5 to 10 µM; IC50 [18]: < 5 µM; IC50 [19]: 5 to 10 µM; IC50 [24]: < 5 µM
2 | Cc1oc(-c2ccccc2)cc1C(=O)Nc1cc(C(F)(F)F)cc(C(F)(F)F)c1 [Compound 4, 2-Methyl-5-phenyl-furan-3-carboxylic acid (3,5-bis-trifluoromethyl-phenyl)-amide] | – | – | 10 to 20 µM | > 30 µM | > 20 µM | > 20 µM | > 20 µM | > 20 µM | > 20 µM | – | – | – | > 20 µM | > 20 µM | > 20 µM | > 20 µM | > 20 µM | > 20 µM | > 20 µM | > 20 µM | –
3 | O=C(Nc1cc(F)cc(C(F)(F)F)c1)c1cc(-c2ccc(Cl)cc2)oc1C(F)(F)F [Compound 5, 5-(4-Chloro-phenyl)-2-trifluoromethyl-furan-3-carboxylic acid (3-fluoro-5-trifluoromethyl-phenyl)-amide] | > 20 µM | 10 to 20 µM | < 5 µM | 4 µM | < 5 µM | < 5 µM | 10 to 20 µM | 5 to 10 µM | 5 to 10 µM | > 20 µM | 5 to 10 µM | 10 to 20 µM | < 5 µM | < 5 µM | 5 to 10 µM | 5 to 10 µM | < 5 µM | < 5 µM | < 5 µM | 5 to 10 µM | IC50 [11]: 5 to 10 µM; IC50 [13]: 5 to 10 µM; IC50 [14]: > 20 µM; IC50 [15]: 5 to 10 µM; IC50 [16]: 5 to 10 µM; IC50 [18]: 5 to 10 µM; IC50 [19]: > 20 µM; IC50 [24]: < 5 µM
4 | O=C(Nc1cc(F)cc(C(F)(F)F)c1)c1cc(-c2ccccc2)oc1C(F)(F)F [Compound 6, 5-Phenyl-2-trifluoromethyl-furan-3-carboxylic acid (3-fluoro-5-trifluoromethyl-phenyl)-amide] | > 20 µM | 10 to 20 µM | < 5 µM | 4 µM | 5 to 10 µM | < 5 µM | 10 to 20 µM | 5 to 10 µM | 5 to 10 µM | > 20 µM | 5 to 10 µM | > 20 µM | 5 to 10 µM | 5 to 10 µM | 10 to 20 µM | 10 to 20 µM | < 5 µM | 5 to 10 µM | 5 to 10 µM | 10 to 20 µM | IC50 [11]: 5 to 10 µM; IC50 [13]: 5 to 10 µM; IC50 [14]: > 20 µM; IC50 [15]: 5 to 10 µM; IC50 [16]: 5 to 10 µM; IC50 [18]: 5 to 10 µM; IC50 [19]: 5 to 10 µM; IC50 [24]: < 5 µM
5 | O=C(Nc1cc(F)cc(C(F)(F)F)c1)c1cc(-c2ccc(Br)cc2)oc1C(F)(F)F [Compound 7, 5-(4-Bromo-phenyl)-2-trifluoromethyl-furan-3-carboxylic acid (3-fluoro-5-trifluoromethyl-phenyl)-amide] | > 20 µM | > 20 µM | < 5 µM | 5 µM | 5 to 10 µM | 5 to 10 µM | > 20 µM | 10 to 20 µM | 5 to 10 µM | > 20 µM | 10 to 20 µM | 10 to 20 µM | > 20 µM | 5 to 10 µM | 10 to 20 µM | 10 to 20 µM | 5 to 10 µM | 5 to 10 µM | 5 to 10 µM | 10 to 20 µM | IC50 [13]: > 20 µM; IC50 [14]: > 20 µM; IC50 [15]: 5 to 10 µM; IC50 [16]: 10 to 20 µM; IC50 [18]: 5 to 10 µM; IC50 [19]: 10 to 20 µM; IC50 [24]: 10 to 20 µM
6 | COc1ccc(-c2cc(C(=O)Nc3cc(C(F)(F)F)cc(C(F)(F)F)c3)c(C(F)(F)F)o2)cc1 [Compound 8, 5-(4-Methoxy-phenyl)-2-trifluoromethyl-furan-3-carboxylic acid (3,5-bis-trifluoromethyl-phenyl)-amide] | – | – | < 5 µM | 2 µM | – | – | – | – | – | – | – | – | – | – | – | – | < 5 µM | – | – | – | –
